Results as given in patent publication US20230121245A1, “REGENERATIVE NONSTEROIDAL ANTI-INFLAMMATORY COMPOSITIONS, METHODS OF PRODUCTION, AND METHODS OF USE THEREOF” (CROWN SCIENTIFIC, L.L.C., priority 2021, published 2023).

Test system: TNFα
Test: LPS induced TNFα response in PBMCs (monocyte/macrophage model)
Assay type: cell-based, human
Details: 0.01-100 μM, compared to vehicle control (0.13% DMSO), 100 ng LPS, 24 hours
Protocol: Fresh leukoreduction system (LRS) cones of healthy donors aged 18-80 years old were purchased from Oklahoma Blood Institute. PBMCs were isolated from LRS cones using EasySep™ Direct Human PBMC Isolation Kit (cat #19654, StemCell Technologies) as per manufacturer's specifications. 1.5 million PBMCs were seeded in 0.5 ml of RPMI (11835030, Gibco) supplemented with 5% HPL (Millcreek), lx Glutamax (35050061, Gibco), 1×NEAA (11140050, Gibco) and 2 U/ml heparin (25021040030, Sagent Pharmaceuticals) in a 24 well plate and rested overnight. The following day, PBMCs were co-stimulated with 100 ng of lipopolysaccharide (LPS, 00-4976-93, Invitrogen) and different doses RNSA in a volume of 0.5 ml. RNSA doses were prepared in saline (R5201-01, Braun) supplemented with 5% HPL and 2 U/ml heparin. Betamethasone (Cayman, 20363), a positive control, was resuspended in DMSO (D4540, Sigma) and administered to PBMCs at different doses to a final 0.13% DMSO concentration. Vehicle for RNSA was 50% saline and for Betamethasone 0.13% DMSO for a 1 ml reaction. All samples were tested in technical triplicates. Treatment duration was 24 hours for all groups. After 24 hours, the supernatant was collected, spun at 5,000 g for 10 minutes and the cell free supernatant stored at −80 C. To detect TNFα, hTNFα Simple Plex assay quantification was performed on ELLA ELISA based detection method (ProteinSimple).

Structure (SMILES): C[C@H]1C[C@H]2[C@@H]3CCC4=CC(=O)C=C[C@]4(C)[C@@]3(F)[C@@H](O)C[C@]2(C)[C@@]1(O)C(=O)CO [Betamethasone]
- attenuation of TNFα response: 20-68%
